According to patent US8999071B2, “Surfactants derived from oligoglycerols” (Dow Global Technologies LLC, priority 2011, dated 2015):

Assays:
Assay type in all cases: physicochemical
[1] = Dynamic surface tension, maximum bubble pressure method (Kruss BP-2)
Description: Dynamic surface tension is measured using a Kruss BP-2 Bubble Pressure Tensiometer. During the test, high purity nitrogen gas bubbles are produced in the surfactant solution at an exactly defined bubble generation rate. The gas bubbles enter the liquid through a glass capillary of known radius (0.223 mm). During this process the pressure passes through a maximum whose value is recorded by the instrument. Surface tension is then calculated from the maximum pressure during bubble formation, and reported as a function of bubble surface age, in ms, and bubble frequency. The measurements are made at ambient temperature.
Dynamic surface tension of surfactants at varying surface ages (presented as bubble frequency) are measure by bubble pressure method on Kruss BP2 tensiometer at 0.1 wt % concentration and 25° C.

[2] = Acidic stability: appearance and shake foam in 0.01 M HCl
Description: The acidic stability of compounds 1 and 2 are tested and compared with Triton™ CG-110 in 0.01 M HCl: solutions are prepared in 0.01 M HCl at 0.1 wt % surfactant concentration. Compound 1 solution is cloudy at this HCl concentration, indicating its cloud point is reduced by the presence of HCl.

[3] = Caustic stability: solubility in NaOH solution
Description: The caustic stability of compounds 1 and 2 is measured by their solubility in 10 wt % NaOH solution: stock solutions are prepared at 1 wt %. Into a sample vial, 1.0 gram of a stock solution is weighed and then 9.0 grams of 11.1 wt % NaOH solution is added to get a 0.1 wt % surfactant solution in 10% NaOH. Both solutions are clear at this condition. In contrast, Tomadol® 91-6 (C9-C11 alcohols ethoxylated to 6EO, cloud point=52° C.) solution (0.1 wt %) becomes cloudy at 5% NaOH content.

[4] = Dynamic surface tension, maximum bubble pressure method (Kruss BP-2); remark: listed apart in the source
[5] = Surface tension and critical micelle concentration, Kruss K100 tensiometer with Wilhelmy plate; details: 25° C., FIG. 1
Description: The surface tension and critical micelle concentration (cmc) of a surfactant solution is measured using Kruss K100 Surface Tensiometer fitted with a Wilhelmy platinum plate. A standard method is utilized. In this method, an increment of surfactant solution is added using a Dosimat™ dosimeter to the vessel initially containing deionized water, and then thoroughly stirred. The surface tension of the resulting solution is then measured. The process is repeated at each concentration data point. Two measurements are made for each system at ambient temperature.
Surface tension-Concentration data for the compound 3 at 25° C. are plotted in FIG. 1.

CCCCCCCCCCOCC(O)COCC(O)CO (stereo not drawn) [Compound 4, 3[3-(decyloxy)-2-hydroxypropoxy]-1,2-propanediol]
Surface Tension @ 6 bubbles/sec., 0.1 wt % ([1]; 25° C.): 43.8 dyne/cm

CCCCCCCCCCOCC(O)COCC(O)COCC(O)CO (stereo not drawn) [Compound 2, 3-(3-(3-(decyloxy)-2-hydroxypropoxy)-2-hydroxypropoxy)propane-1,2-diol]
acidic stability compared with Triton CG-110 ([2]; 0.01 M HCl): improved stability

CCCCCCCCCCCOCC(O)COCC(O)CO (stereo not drawn) [Compound 6, 3-(2-hydroxy-3-(undecyloxy)propoxy)propane-1,2-diol]
Surface Tension @ 6 bubbles/sec., 0.1 wt % ([1]; 25° C.): 61.4 dyne/cm

CCCCCCCCCOCC(O)COCC(O)CO (stereo not drawn) [Compound 1, 3-[3-(nonyloxy)-2-hydroxypropoxy]-1,2-propanediol]
acidic stability compared with Triton CG-110 ([2]; 0.01 M HCl): improved stability | Foam Volume, 20 h ([2]; 0.1 wt % in 0.01M HCl, 10 ml, shaken at high for 10 min., after 20 hours in air at room temperature): 17 mL | Foam Volume, 0 h ([2]; 0.1 wt % in 0.01M HCl, 10 ml, shaken at high for 10 min., right after preparation): 17 mL | foam persistence after shaking, 20 h ([2]; 0.1 wt % in 0.01M HCl, after 20 hours at room temperature): no change | foam persistence after shaking, 0 h ([2]; 0.1 wt % in 0.01M HCl, right after preparation): no change | appearance of solution in 0.01 M HCl ([2]; 0.1 wt % surfactant, 0.01 M HCl): cloudy | appearance of 0.1 wt % surfactant solution in 10% NaOH [3]: clear | surface tension over the whole tested range of ageing time compared to C12TG, C11DG and C10DG ([1]; 0.1 wt %, 25° C., FIG. 2): lower surface tension | Surface Tension @ 6 bubbles/sec., 0.1 wt % ([1]; 25° C.): 35.6 dyne/cm

CCCCCC(CCC)COCC(O)COCC(O)CO (stereo not drawn) [Compound 3, 3-(2-hydroxy-3-((2-propylheptyl)oxy)propoxy)propane-1,2-diol]
Surface Tension @ 6 bubbles/sec., 0.05 wt % [4]: 39.4 dyne/cm | critical micelle concentration (cmc) [5]: about 700 ppm | water surface tension after reaching critical micelle concentration [5]: 26-27 dynes/cm | surface tension at bubble frequency larger than 10 bubbles/sec ([1]; 0.1 wt %, 25° C., >10 bubbles/sec, FIG. 2): around 37 dynes/cm | surface tension in the whole range of surface ageing time compared to the Lutensol products ([1]; 0.1 wt %, 25° C., FIG. 2): lower surface tension | surface tension over the whole tested range of ageing time compared to C12TG, C11DG and C10DG ([1]; 0.1 wt %, 25° C., FIG. 2): lower surface tension | surface tension at lower bubble frequency compared to Surfynol 420 ([1]; 1-6 bubbles/sec., 0.1 wt %, FIG. 2): significantly lower surface tension | Surface Tension @ 6 bubbles/sec., 0.1 wt % ([1]; 25° C.): 33.3 dyne/cm

CCCCCCCCCCCCOCC(O)COCC(O)COCC(O)CO (stereo not drawn) [Compound C12TG, 3-(3-(3-(dodecyloxy)-2-hydroxypropoxy)-2-hydroxypropoxy)propane-1,2-diol, reference compound]
Surface Tension @ 6 bubbles/sec., 0.1 wt % ([1]; 25° C.): 56.9 dyne/cm
